Source: US20060093658A1 (priority 2004, published 2006)

Columns and labels:
[1] = cited from earlier work
clinical = details: both, human, in vivo, iv
Experimental: (§1) Methods: This was a 2-part study in healthy human volunteers (18-45 years). […] All treatments were administered 30 minutes after a subcutaneous injection of low-molecular weight heparin to counteract the increase in clotting factors in the healthy volunteer population. […] Topical effects were also examined. Pain upon patch application was scored and compared to subcutaneous saline injection with a 27-gauge needle. […] Bleeding assessment (visual and photographic) were measured 2 min post-system removal. […] Routine safely assessments were also included, including the following: solicitation of Adverse Events (AEs), measurement of vital signs, measurement of serum sodium concentration and platelets, and measurement of urine output, specific gravity and osmolality.
Data analysis included a review of PK parameters (Cmax, Tmax, elimination rate constant, apparent half-life, and AUCinf) and were estimated using standard methodology. […] The intra-individual (sigma) and inter-individual (CV %) variabilities were estimated using additive+proportional and log normal distributions, respectively. Model performance between hierarchical models was assessed both numerically (Objective Function, OBJ) and graphically (comparison of the predicted and observed data). A reduction of^3 6.7 units in OBJ per additional structural model parameter was considered significant at p<0.01 on the x^2 distribution.

in vivo [2] = details: hairless, guinea pig
Experimental: The retainer ring containing the patch was loaded onto an impact applicator, and the patch was applied to the prepared skin site with an impact energy of 0.26 J, delivered in less than 10 ms.
Efficiency of delivery was calculated as the percentage delivered of the total dose coated onto the array. For mass balance calculations, drug residuals left on the skin and on the array were also taken into account.

[3] = skin response / tolerability of microneedle patches; format: in vivo
Text: Following system removal, skin sites were visually assessed for signs of erythema, edema, bleeding, and infection until the sites returned to normal.

[4] = tested on: plasma coagulation Factor VIII; test: pharmacodynamic effect on plasma coagulation Factor VIII levels (one-stage clotting assay); format: in vivo, human
Experimental: as §1

in vivo [5] = details: hairless, guinea pig; remark: listed apart in the source
[6] = desmopressin-coated microneedle patches

For `NC(=O)CC[C@@H]1NC(=O)[C@H](Cc2ccccc2)NC(=O)[C@H](Cc2ccc(O)cc2)NC(=O)CCSSC[C@@H](C(=O)N2CCC[C@H]2C(=O)N[C@H](CCCN=C(N)N)C(=O)NCC(N)=O)NC(=O)[C@H](CC(N)=O)NC1=O` [desmopressin], the nasal bioavailability ([1]; human, in vivo, inhaled or intranasal) is given as 3.4%, the oral bioavailability ([1]; oral administration) is given as 0.1% and the Tmax (clinical) is given as 0.26 h. It also gave a t1/2 (clinical) of 3.8 ± 1.25 h, a Tmax (clinical; 15 ug, time of peak concentration) of 0.25 h and a Tmax (clinical; Tmax) of 0.5 h. It also gave a half-life (clinical; mean half-life) of 3.1 to 3.8 h, a half-life (clinical; t1/2) of 3.1 ± 0.38 h and a dose excreted (in vivo [2]; iv, 20 ug) of 71%. The bioavailability (in vivo [2]; outbred euthymic (ibm:GOHI-hr and IAF:HA-HO-hr)) was 85%, the “tolerability of the desmopressin-coated microneedle patches” value ([3]; 5 or 15 min wear) was “well tolerated” and the “erythema following removal of the systems” value [3, 6] was “only mild erythema”. For the same molecule, the “signs of edema, bleeding, or infection” value [3, 6] was “no signs of edema, bleeding, or infection”, the “time to resolution of erythema” value [3, 6] was ≤ 24 h and the “Factor VIII value” ([4]; IV-15 ug) was 280 % of baseline value. The “Factor VIII value” ([4]; IV-30 ug) was 321 % of baseline value, the “pharmacological activity of absorbed desmopressin (factor VIII measurements)” value ([4]; desmopressin absorbed after MFLX / IV) was “pharmacologically active” and the AUC (in vivo [5]; 82 ug) was 76 ng·h/mL. The Cmax (in vivo [5]; 82 ug) was 49 ng/mL, the AUC (in vivo [5]; iv, 11 ug) was 50.5 ng·h/mL and the Tmax (in vivo [5]; outbred euthymic (ibm:GOHI-hr and IAF:HA-HO-hr), 82 ug) was 1 h.
